One compound from patent US12653191B2, “Active compound combinations” (Bayer Aktiengesellschaft, priority 2020, dated 2026) can be followed below.

The test system of one data set is Alternaria alternate. The data set can be described thus: in vitro-Test with fungal microorganisms, Method A (tables A1-A12). To be noted: applied alone. In kind it is cell-based, Alternaria alternata. Summed up: (§1)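 Readout: extinction at 620 nm, measured at start and again 3-5 days later, giving efficacy versus untreated control (0% = control growth, 100% = no growth). Compounds were evaporated from methanol/emulsifier before adding potato dextrose medium with fungal spores or mycelium; incubation 20° C, 85% RH.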

The test system of another data set is Fusarium culmorum. The data set can be described thus: in vitro-Test with fungal microorganisms, Method A (tables G1-G4). In kind it is cell-based. The conditions noted are these: alone. Summed up:
as §1

Data set [1] concerns Ustilago segetum var. avenae. As to the kind of experiment: in vitro-Test with fungal microorganisms, Method A (tables I1-I5). It is filed as cell-based. To be noted: alone, read-out: Efficacy %. Summed up:
as §1

The test system of a further data set is Cercospora beticola. As to the kind of experiment: in vitro-Test with fungal microorganisms, Method A (tables C1-C10). The conditions noted are these: Cercospora beticola, read-out: Efficacy %. It is filed as cell-based. Summed up: as §1
The test system of a further data set is Diaporthe citri. As to the kind of experiment: in vitro-Test with fungal microorganisms, Method A (tables F1-F11). The conditions noted are these: applied alone. It is filed as cell-based. Summed up: as §1
Data set [2] in a line: Log P by HPLC on reversed phase columns (LC-UV), method [a]: acidic range, 0.1% formic acid in water / acetonitrile. It is filed as physicochemical. To be noted: method [a]: HPLC on reversed phase column, acidic range, 0.1% formic acid in water / acetonitrile.
Protocol: Measurement of Log P Values
Measurement of Log P values as provided herein was performed according to EEC directive 79/831 Annex V.A8 by HPLC (High Performance Liquid Chromatography) on reversed phase columns with the following methods: • ^[a]
If more than one Log P value is available within the same method, all the values are given and separated by “+”.

What is called chromatographic logP is a lipophilicity value derived from retention on a column. In the case of `Cc1ccc(CC2CON=C(c3cc(C)nnc3Oc3cccc(Cl)c3F)N2)c(Cl)c1` (racemic) [Compound I-302, rac-3-[3-(3-chloro-2-fluorophenoxy)-6-methylpyridazin-4-yl]-5-[(2-chloro-4-methylphenyl)methyl]-5,6-dihydro-4H-1,2,4-oxadiazine], the inhibition of growth at 0.0008 ppm with Alternaria alternate (Alternaria, 0.0008 ppm, read-out: Efficacy %) is 9%; with Fusarium culmorum (Fusarium culmorum, 0.0008 ppm, read-out: Efficacy), 7%; in data set [1] (0.0008 ppm) it was 0%; in the data set on Cercospora beticola (0.0008 ppm), 0%; in the data set with Diaporthe citri (Diaporthe citri, 0.0008 ppm, read-out: Efficacy) it was 0%. Also, the inhibition of growth at 0.004 ppm in the data set with Alternaria alternate (Alternaria, 0.004 ppm, read-out: Efficacy %) is 6%; in the data set with Fusarium culmorum (Fusarium culmorum, 0.004 ppm, read-out: Efficacy) it was 4%; in data set [1] (0.004 ppm), 0%; with Cercospora beticola (0.004 ppm), 0%; with Diaporthe citri (Diaporthe citri, 0.004 ppm, read-out: Efficacy), 1%. Further, the inhibition of growth at 0.02 ppm in the data set on Alternaria alternate (Alternaria, 0.02 ppm, read-out: Efficacy %) came out at 36%; in the data set with Fusarium culmorum (Fusarium culmorum, 0.02 ppm, read-out: Efficacy) it was 2%; in data set [1] (0.02 ppm), 0%; in the data set with Cercospora beticola (0.02 ppm), 31%; with Diaporthe citri (Diaporthe citri, 0.02 ppm, read-out: Efficacy), 0%. Besides, the inhibition of growth at 0.1 ppm is 100% in the data set on Alternaria alternate (Alternaria, 0.1 ppm, read-out: Efficacy %); 0% in the data set on Fusarium culmorum (Fusarium culmorum, 0.1 ppm, read-out: Efficacy); 0% in data set [1] (0.1 ppm); 35% with Cercospora beticola (0.1 ppm); 20% in the data set with Diaporthe citri (Diaporthe citri, 0.1 ppm, read-out: Efficacy). In addition, the Efficacy % in the data set on Alternaria alternate (0.004 ppm) is listed as 6%. The Efficacy in the data set with Fusarium culmorum (0.004 ppm) was determined as 4%; in the data set with Diaporthe citri (0.004 ppm), 1%. This compound also showed a chromatographic logP in data set [2] of 3.94.
